Measured values as given in patent publication US20220152214A1, “CANCER TREATMENT WITH ROR1 ANTIBODY IMMUNOCONJUGATES” (VelosBio Inc., priority 2019, published 2022).
Where a SMILES comes first, the peptide text is derived from it. [ ]: non-standard residue; d: D form. The star is where a group is joined. Dolaproine = CO[C@@H]([C@@H]1CCCN1)[C@@H](C)C(=O)O; Dil = CC[C@H](C)[C@H](NC)[C@@H](CC(=O)O)OC; X1 = C[C@@H](N*)[C@@H](O)c1ccccc1; NMeV = CN[C@H](C(=O)O)C(C)C

Test: Plasma pharmacokinetics of total antibody, total ADC-A and MMAE after ADC-A IV infusion
Format: in vivo, human
Set-up: Cmax/Dose / AUClast/Dose: unit not given beside the values
Settings: plasma analyte = label
Method: The following describes a protocol for evaluating the safety, pharmacokinetics, pharmacodynamics, immunogenicity, and efficacy of a ROR1 immunoconjugate (ADC-A) across a range of dose levels when administered to subjects with previously treated relapsed or refractory CLL/SLL, MCL, FL, MZL, DLBCL, RTL, BL, LPL/WM, T cell NHL, ALL, or AML. ADC-A is administered intravenously (IV) in repeated 3-week cycles with a drug infusion on Day 1 of each cycle (Q1/3W [Schedule 1]); in repeated 3-week cycles with drug infusions on Days 1 and 8 of each cycle (Q2/3W [Schedule 2]); or in repeated 4-week cycles with drug infusions on Days 1, 8, and 15 of each cycle (Q3/4W [Schedule 3]) over a planned infusion time of ˜30 minutes. Infusion times may be extended as necessary to accommodate individual subject tolerance of treatment.

[1] = after ADC-A 0.5 mg/kg IV Q1/3W (n = 1)
[2] = after ADC-A 1.0 mg/kg IV Q1/3W (n = 3)
[3] = after ADC-A 1.5 mg/kg IV Q1/3W (n = 3)
[4] = after ADC-A 2.25 mg/kg IV Q1/3W (n = 9)
[5] = after ADC-A 2.5 mg/kg IV Q1/3W (n = 4)

For `CC[C@H](C)[C@@H]([C@@H](CC(=O)N1CCC[C@H]1[C@H](OC)[C@@H](C)C(=O)N[C@H](C)[C@@H](O)c1ccccc1)OC)N(C)C(=O)[C@@H](NC(=O)[C@@H](NC)C(C)C)C(C)C` [MMAE, monomethyl auristatin E] (H-[NMeV]V[Dil][Dolaproine]-X1), the “Increases in Cmax and AUC with dose” value (ADC-A 0.5 to 2.5 mg/kg IV Q1/3W) was “somewhat less than dose-proportional”, the AUClast [1] was 271 ng·h/mL and the AUClast/Dose [1] was 0.5420. The Cmax [1] was 1.15 ng/mL, the Cmax/Dose [1] was 0.0023 and the Tmax [1] was 48 h. The AUClast [2] was 467 ng·h/mL, the AUClast/Dose [2] was 0.4673 and the Cmax [2] was 2.66 ng/mL. For the same molecule, the Cmax/Dose [2] was 0.0027, the Tmax [2] was 48 h and the AUClast [3] was 390 ng·h/mL. For the same molecule, the AUClast/Dose [3] was 0.2600, the Cmax [3] was 1.66 ng/mL and the Cmax/Dose [3] was 0.0011. It also gave a Tmax [3] of 88.7 h, an AUClast [4] of 698 ng·h/mL and an AUClast/Dose [4] of 0.3102. The Cmax [4] was 4.43 ng/mL, the Cmax/Dose [4] was 0.0020 and the Tmax [4] was 75.1 h. It also gave an AUClast [5] of 994.8 ng·h/mL, an AUClast/Dose [5] of 0.3979 and a Cmax [5] of 6.7 ng/mL. The Cmax/Dose [5] was 0.0027 and the Tmax [5] was 78.5 h.
